# Test results as given in patent publication US8071654B2, “Inhibitors of thromboxane formation and action” (priority 2000, dated 2011).
# Legend:
# [1] = intra ocular pressure in rats, eye drops, TonoPen; type: in vivo, Brown Norway rats; details: 0.005%, one drop daily to left eye, after 10 days' treatment, vs untreated right eye
# Procedure: Brown Norway rats (300 g) were purchased from Charles River (St. Constant, Que), and housed (two/cage) in an animal facility with free access to food and water. A light cycle of 12 h on and 12 h off was maintained. Animals were allowed to adjust for one week prior to treatment during which period they were handled daily to get them familiarized with the procedures.
# Prior to treatment with test drugs, the rats' intra ocular pressures (IOP) were measured to establish baseline readings. One drop of Didocaine (0.5%, Dioptic Labs, Markham, Ont) was administered to each eye, and the pressure in each eye was measured with a TonoPen (Mentor XL, Innova Medical Ophthalmics, Toronto). The treatment protocol consisted of daily administration of one drop of one of the following substances to the left eye, the right eye being left untreated to act as a control. […] Following this, the animals were left without treatment for 2 weeks (wash-out), and then treatment was started again, the same animals receiving the same drugs. Results are calculated from at least 30 readings/test animal and presented as the mean±SEM (left eye vs right eye), with the exclusion of readings >50 and <10 which were considered spurious and artifactual readings.
# Plase A2 = experiment: AA formed in collagen-treated washed human platelets (Plase A2), HPLC; type: cell-based; details: for Plase A2 enzyme activity (% of control values, mean ± SD): n = 3
# Procedure: (§1) 0.5 ml of platelet suspension was added to siliconized glass tubes (four at a time) and heated with magnetic stirring to 37° for 1 min in a platelet aggregometer (PAP-4C). Either vehicle alone (ethanol, 1 μl) or hepoxilin analog was then added, followed two min later by agonist (collagen: 2 μg; PGH2: 100 ng/0.5 ml; U46619: 10 ng/0.5 ml or I-BOP: 2 ng/0.5 ml). The response was recorded for the next 5 min. In experiments where analysis of TxB2 and HHT were to be made by HPLC, the platelet suspension at the end of the experiment was diluted with ethyl acetate, 100 ng of prostaglandin B1 was added as internal standard, and the mixture was acidified to pH 3 with 0.1 N HCl. After centrifugation, the organic layer was separated, washed twice with water to neutrality, and evaporated to dryness. Half of the sample was taken and was resuspended in 1 ml ethyl acetate containing 20 μg ADAM reagent, and was left in the dark for 2 h (38). The solvent was then evaporated and the residue was acetylated with a solution of pyridine/acetic anhydride (3/1, v/v) during 16 h at 23°. The reagents were evaporated to dryness and the residue was resuspended in acetonitrile/water for HPLC analysis. In experiments where the conversion of tritiated PGH2 was to be monitored, the procedure described above was repeated with tritiated PGH2 instead of unlabeled PGH2. After extraction of the sample as described above, the radiolabeled compounds were analyzed by TLC. Dose response curves for varying amounts of test compounds were generated and the data expressed as % inhibition of collagen-induced platelet aggregation. Each point was investigated 5 times and statistical analysis of the data was carried out using Macintosh Statview statistical software.
# Measurement of eicosanoids formed by platelets during treatment with collagen or the TP receptor agonists in the presence or absence of PBT-3 was carried out by HPLC after appropriate derivatization with a fluorescent tag (anthracyl diazomethane—ADAM) which forms a fluorescent ester (44). The method was adapted to measure the following compounds: TxB2, HHT, 12-HETE and M. The platelet suspension at the end of the experiment was mixed with ethyl acetate, 100 ng of prostaglandin B1 was added as internal standard and the mixture was acidified to pH 3 with 0.1 N HCl. After centrifugation, the organic layer was separated, washed twice with water to neutrality, and evaporated to dryness. The residue was resuspended in ethyl acetate and half of the sample was taken. It was diluted to 0.2 ml with ethyl acetate containing 20 μg ADAM reagent, and was left in the dark for 2 h. The solvent was then evaporated and the residue was acetylated with a solution of pyridine/acetic anhydride (3/1, v/v) for 16 h at 23°. The reagents were evaporated to dryness and the residue was resuspended in acetonitrile/water for HPLC analysis. Dose response curves for varying amounts of test compounds were generated and the data were expressed as % inhibition of agonist-induced platelet aggregation. Each point was investigated 3 times and statistical analysis of the data was carried out using Macintosh Statview statistical software.
# Analysis of the anthryl (ADAM)-acetate derivative of TxB2, HHT and 12 HETE in the extracted platelet samples was carried out on a Hewlett Packard (1100 series) HPLC to which was attached a Shimadzu fluorescent detector (RF-10AXL). The detector was operated with excitation at 364 nm, emission at 411 nm. […]
# TP receptor = biological target: T1, TP receptor (Homo sapiens, UniProt P21731); experiment: platelet aggregation evoked by the TxA2 mimic U46619; type: cell-based
# T1 construct: endogenous in cells; host or cells: washed human platelets
# T1 sequence (P21731 1-343): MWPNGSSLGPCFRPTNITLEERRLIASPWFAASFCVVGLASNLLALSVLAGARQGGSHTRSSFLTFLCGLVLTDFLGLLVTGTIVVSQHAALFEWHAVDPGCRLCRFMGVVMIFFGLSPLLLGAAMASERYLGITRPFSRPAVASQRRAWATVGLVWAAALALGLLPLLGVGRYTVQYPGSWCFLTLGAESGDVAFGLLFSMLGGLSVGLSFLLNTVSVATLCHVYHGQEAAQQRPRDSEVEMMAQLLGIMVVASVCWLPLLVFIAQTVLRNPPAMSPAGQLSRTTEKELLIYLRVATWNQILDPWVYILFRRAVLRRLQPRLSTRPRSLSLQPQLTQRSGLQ
# Procedure: Venous blood was obtained from healthy human subjects who had not taken NSAID's for at least two weeks. Blood was drawn into plastic syringes containing ACD. It was immediately centrifuged at 23° at 200×g for 15 min. The platelet rich plasma was transferred into fresh plastic tubes and centrifuged at 400×g for 5 min. The supernatant was discarded and the platelet sediment was resuspended in fresh medium containing NaCl (137 mM), KCl (1 mM), NaH2PO4, glucose (5.5 mM), HEPES (20 mM) and CaCl2 (1 mM) and allowed to stand at room temperature for 30 min. A platelet count was made, which determined the volume of platelet suspension needed to make up 350×10^6 cells for each measurement. The aliquot was diluted with medium to make 0.5 ml/assay/cuvette. Appropriate calibration of the aggregometer (PAP-4C) for 0% and 100% transmission was carried out through the use of a sample of platelet suspension and cell-free medium (37).
# as §1
compound,measurement,setting,value
"CCCCC/C=C\CC1CC1[C@@H](O)/C=C\C/C=C\CCCC(=O)OC (stereo partly drawn) [PBT-3, 10(S)-hydroxy-11,12-cyclopropyl-eicosa-5Z,8Z,14Z-trienoic acid methyl ester]",effect on intra ocular pressure (IOP),[1],"significant reduction in IOP, comparable to that produced by latanoprost"
same,"Plase A2 enzyme activity (% of control values, mean ± SD)",Plase A2; PBT-3 0.05 μM,100.0 ± 6.9^NS % of control
same,"Plase A2 enzyme activity (% of control values, mean ± SD)",Plase A2; PBT-3 0.30 μM,91.9 ± 5.6^NS % of control
same,"Plase A2 enzyme activity (% of control values, mean ± SD)",Plase A2; PBT-3 0.60 μM,89.5 ± 15.6^NS % of control
same,"Plase A2 enzyme activity (% of control values, mean ± SD)",Plase A2; PBT-3 3.00 μM,120.8 ± 18.3^NS % of control
same,"inhibition of Plase A2, in words","Plase A2; relatively large amounts of PBT-3, about 3-4 log doses greater than required to inhibit the TP receptor","Neither COX-1, COX-2,12-LOX nor Plase A2 was inhibited"
same,effect on U46619-induced aggregation in aspirin-treated platelets,"TP receptor; PBT-3 added after aspirin, before U46619",blockade of the aggregation
same,IC50,"TP receptor; U46619 10 ng/0.5 ml, read-out: IC50 for inhibition of aggregation evoked by U46619",700 nM
same,inhibition of aggregation evoked by U46619,TP receptor; dose of 1 μg,inhibited the aggregation
